From US20140147853A1, “Method for Predicting Respiratory Toxicity of Compounds” (priority 2009, published 2014)
“Also recorded” adds a separate entry of the source. Like-named read-outs stand apart in the source and are kept apart here.

Key:
[1] = test system: fetal human lung cells and human lung fibroblasts; conditions: Sakaguchi 1984, Lehnert 2001; cited from earlier work
[2] = test system: EPIAIRWAY cells; experiment: Cell viability by MTT reduction in EPIAIRWAY 3-D model; type: cell-based, human
Procedure: (§1) The dosing regimen used here brackets this dose. […] Again, the dosing regimen used brackets this concentration. […] This calculates to 750 ng/cm^2.
Cell viability was determined by measuring the reduction of 3-[4,5-dimethylthiazol-2-yl]2,5-diphenyltetrazolium bromide (MTT). The cells in each well were evaluated for their ability to reduce soluble-MTT (yellow) to formazan-MTT (purple). An MTT stock solution was prepared […] complete medium just prior to use and warmed to 37° C. in a water bath. Once the media and dosing solution was removed from all wells, MTT solution was added to the basal side of each well and the plate was allowed to incubate at 37° C. for 3-4 hr. Media was removed and the purple formazan product was extracted using anhydrous isopropanol applied to both the apical and basal side of the cells. Sample absorbance was read at 570 nm and reference absorbance at 650 nm with a Packard Fusion or equivalent plate reader.

[3] = test system: EPIAIRWAY cells; experiment: Histology of EPIAIRWAY 3-D model (structural integrity); type: cell-based, human
Procedure: as §1
Cells were isolated using a 3 mm biopsy punch (Miltex, York, PA) and immediately placed in […] 10% Neutral Buffered Formalin (Fisher Diagnostics, Middletown, Va.). Histology was performed essentially as described by Sheehan and Hrapchak (1980). Briefly, cells were processed and embedded into paraffin wax blocks. The blocks were sectioned at 3 μm, adhered to slides and stained with hematoxylin and eosin. Photos were taken at 10× magnification.

[4] = test system: EPIAIRWAY cells; experiment: Intracellular glutathione (GSH) levels, oxidative stress; type: cell-based, human
Procedure: as §1
Intracellular glutathione levels were determined essentially as described by Griffith (1980) with modifications. At the end of the exposure period, the medium was removed from the cells and metaphosphoric acid (MPA) was added to each well. Plates were then shaken for 5 min at room temperature and stored at −20° C. until needed.

[5] = test system: Bax; experiment: qRT-PCR gene expression in EPIAIRWAY cells; type: cell-based, human; conditions: 24 hours
Procedure: as §1

[6] = test system: Bcl2; experiment: qRT-PCR gene expression in EPIAIRWAY cells; type: cell-based, human; conditions: 24 hours
Procedure: as §1

[7] = test system: IL-6; experiment: qRT-PCR gene expression in EPIAIRWAY cells; type: cell-based, human; conditions: for IL-6 mRNA expression vs control: 24 hours, 1, 10, 30, 100 dosed
Procedure: as §1

[8] = test system: TNF-α; experiment: qRT-PCR gene expression in EPIAIRWAY cells; type: cell-based, human; conditions: for TNF-α mRNA expression vs control: 1, 10, 30, 100 dosed
Procedure: as §1

[9] = test system: CYP1A1
Procedure: The three-dimensional in vitro human [sequence] system may be purchased from MatTek (Ashland, Mass.). Cultures are maintained with supplied culture media according to the manufacturer's instructions. Briefly, [sequence] 96-well plates are allowed to equilibrate in 250 μL media for at least 18 hours overnight at 37° C. with 5% CO2 upon arrival. Media is changed every other day if cells are not used immediately after equilibration.
In the Examples described below, dosing solutions were prepared in DPBS (MatTek, Ashland, Mass.). The [sequence] cells were dosed with 100 μL of the following concentrations: 1, 10, 30 and 100 μM bleomycin, cadmium chloride, beryllium sulfate and doxorubicin; 1, 10, 30 and 100 μg/cm^2 silica; and 1, 10, 30 and 100 ng/mL LPS. […] The dosing regimen used here brackets this dose. […] Again, the dosing regimen used brackets this concentration. […] This calculates to 750 ng/cm^2. The concentrations and volumes dosed calculate to 483 ng/cm^2 (1 μM), 4.83 μg/cm^2 (10 μM), 14.5 μg/cm^2 (30 μM) and 48.3 μg/cm^2 (100 μM) doxorubicin, bracketing the safe range. MIN-U-SIL 5 silica, with an average surface area of 5.1 cm^2/g gives the following concentrations dosed: 0.051 cm^2/cm^2 (1 μg/cm^2), 0.51 cm^2/cm^2 (10 μg/cm^2), 1.53 cm^2/cm^2 (30 μg/cm^2) and 5.1 cm^2/cm^2 (100 μg/cm^2). […] In order to analyze the acute response of [sequence] cells to LPS, cells are exposed to LPS concentrations ranging from 1 ng/mL to 100 ng/mL. Following the exposure period, the dosing solutions are removed and cells are analyzed for changes in structure, cell viability, oxidative stress and gene expression.
Total RNA was isolated from [sequence] human respiratory cells by the TRIZOL (Invitrogen, Carlsbad, Calif.) method (Chomczynski and Sacchi, 1987)with modifications. Briefly, cells were punched out using a biopsy punch (Miltex, York, Pa.) and immediately placed in TRIZOL. The samples were then frozen at −80° C. until needed. After thawing, the isolation procedure followed the manufacturer's instructions.
Induction of target gene mRNA was determined as follows, by standard one-step qRT-PCR techniques using multiple internal control genes for normalization with a few modifications (Vandesompele et al, 2002). RT-PCR was performed using the Quantitect® SYBR Green RT-PCR kit (Qiagen, Valencia, Calif.) according to the manufacturer's instructions for 20 μL reactions. All primers were [sequence] Primer Assay (Qiagen, Valencia, Calif.) containing forward and reverse primers in the same tube (see Table 1, below). Briefly, 50 ng of RNA in 20 μL reactions are set up in 384-well RT-PCR plates (Roche Diagnostics Corp., Indianapolis, Ind.) and placed in a [sequence] 480 real time PCR machine (Roche Diagnostics Corp., Indianapolis, Ind.). One-step PCR was set as follows; reverse transcription was 1 cycle of 50° C. for 30 minutes followed by 95° C. for 15 minutes. Amplification was set for 45 cycles of 94° C. for 15 seconds, 55° C. for 20 seconds and 72° C. for 20 seconds. Melting curve was generated by 1 cycle of 95° C. for 5 seconds followed by 65° C. for 1 minute. Data were analyzed using the [sequence] 480 software version 1.5.0.39 (Roche Diagnostics Corp., Indianapolis, Ind.). The expression levels of multiple housekeeping genes were determined and an average fold induction over vehicle was elucidated for each housekeeping gene.

[10] = test system: human epithelial cells; conditions: Han et al., 2007; cited from earlier work
[11] = test system: human fetal lung fibroblasts; conditions: Yang et al., 1997; cited from earlier work
[12] = test system: IL-1α; experiment: qRT-PCR gene expression in EPIAIRWAY cells; type: cell-based, human; conditions: 24 hours; 1, 10, 30, 100 dosed
Procedure: as §1

[13] = test system: IL-8; experiment: qRT-PCR gene expression in EPIAIRWAY cells; type: cell-based, human; conditions: 24 hours
Procedure: as §1

[14] = test system: TGF-β; experiment: qRT-PCR gene expression in EPIAIRWAY cells; type: cell-based, human; conditions: 24 hours of exposure
Procedure: as §1

[15] = test system: EPIAIRWAY cells; experiment: LDH release into the media by EPIAIRWAY cells; type: cell-based, human; conditions: 100 μM
Excerpt: The primary shortcoming of this model system appears to be that the MTT results to not compare well with histology. This may be due to the fact that the basal cell layers have the highest metabolic activity given that they are still rapidly dividing. […] Fortunately, there appears to be a much more concise method to assess cytotoxicity in this model system. Lactate dehydrogenase is a cytosolic enzyme commonly used as a marker for cell membrane permeability, and therefore, cytotoxicity (Davies et al., 1973).

[16] = test system: human lung epithelia and fibroblasts; conditions: in vitro (Sato 1999, Takamizawa 1999); ~7.1 μM; cited from earlier work
[17] = Literature: phase 1 study of inhaled doxorubicin; type: in vivo, human; conditions: calculated from 7.5 mg/m^2
Procedure: as §1

[18] = every 3 weeks, phase 1 study (Otterson 2007); cited from earlier work
[19] = 24 hours, 1, 10, 30, 100 dosed, >2-fold significant
[20] = dose-dependent, 1-100 μM, maximum reached
[21] = any dose (1, 10, 30, 100), 24 and 72 hours

[Be+2] [Beryllium]
Lowest cytotoxic concentration [1]: ≥ 5.5 µM

[Cl][Cd][Cl] [Cadmium chloride, cadmium chloride]
Cell viability (MTT) ([2]; 100 μM, 24 hours): 56 % of control
Histology: cell structure ([3]; 10 μM, 24 hour exposure): cell loss
Histology: cell structure ([3]; 100 μM, 24 hour exposure): much more noticeable a breakdown of cellular structure
Histology: cell structure ([3]; 24 hours): significant structural breakdown and cell loss
Effect on intracellular GSH ([4]; 24 hours, 1, 10, 30 and 100 μM): no reduction
Bax mRNA expression vs control ([5]; 100 μM): mildly induced
Bcl2 mRNA expression vs control ([6]; 100 μM): mildly induced
IL-6 mRNA expression vs control [7]: substantially induced
TNF-α mRNA expression vs control ([8]; 24 hours): mild induction
CYP1A1 mRNA expression vs control [9, 19]: substantially induced
Concentration exhibiting cytotoxicity [10]: 50 µM
Concentration inducing significant LDH release [11]: 8.75 µM

Triton X-100
Histology: killing of basal cell layers ([3]; 0.3%, 24 hours): unable to kill these bottom layers of cells

Bleomycin
Effect on cell viability (MTT) ([2]; 24 hours, 1, 10, 30 and 100 μM): no effect on viability
Cell viability (MTT) ([2]; 72 hour exposure, 1, 10, 30 and 100 μM dosed): 90 % of control
Histology: cell structure ([3]; 24 hours): significant structural breakdown and cell loss; also recorded: significant structural breakdown and loss of cells
Intracellular GSH ([4]; 1 μM, 72 hours): 71 % of control
Total cellular GSH ([4]; 100 μM, 24 hours): 75 % of control
Ratio of Bax:Bcl2 expression [5]: decreased
Bcl2 mRNA expression vs control ([6]; 1, 10, 30 and 100 μM): induced
IL-1α mRNA expression vs control [12]: induced in a dose-dependent manner
IL-6 mRNA increase over control tissues [7, 20]: > 20 fold
IL-8 mRNA expression vs control ([13]; 1, 10, 30, 100 dosed): induced in a dose-dependent manner
TGF-β mRNA expression vs control [14]: induction was not seen
TNF-α mRNA increase over control tissues [8, 20]: > 20 fold
LDH release into the media, increase compared to control ([15]; 24 hours): 292%
LDH release into the media, increase compared to control ([15]; 72 hours): 588%
CYP1A1 mRNA expression vs control [9, 19]: greatly induced
Concentration inducing cytokine release while relatively non-toxic [16]: 10 µg/mL

O=S(=O)([O-])[O-].[Be+2] [Beryllium sulfate, beryllium sulfate]
Effect on cell viability (MTT) [2, 21]: did not reduce cell viability
Intracellular GSH ([4]; 1 μM, 72 hours): 65 % of control
Effect on intracellular GSH ([4]; 10 μM, 72 hours): did not have an effect
Intracellular GSH ([4]; 30 μM, 72 hours): 83 % of control
Intracellular GSH ([4]; 100 μM, 72 hours): 71 % of control
Effect on intracellular GSH ([4]; 24 hours, 1, 10, 30 and 100 μM): no effect
Bcl2 mRNA expression vs control ([6]; 100 μM): mildly induced
IL-1α mRNA expression vs control [12]: substantially induced
IL-6 mRNA expression vs control [7]: substantially induced
IL-8 mRNA expression vs control ([13]; 1 and 30 μM): mildly induced
TNFα mRNA expression vs control ([8]; 100 μM, 24 hours): mildly induced
CYP1A1 mRNA expression vs control [9, 19]: substantially induced

COc1cccc2c1C(=O)c1c(O)c3c(c(O)c1C2=O)C[C@@](O)(C(=O)CO)C[C@@H]3O[C@H]1C[C@H](N)[C@H](O)[C@H](C)O1 [Doxorubicin]
Effect on cell viability (MTT) ([2]; 1 μM, either time point (24, 72 hours)): no effect on cell viability
Cell viability (MTT) ([2]; 100 μM, 72 hours): 57 % of control
Effect on cell viability (MTT) ([2]; 24 hours, 1, 10, 30 and 100 μM): not observed
Histology: cell structure ([3]; 24 hours): significant structural breakdown and loss of cells; also recorded: significant structural breakdown and cell loss
Intracellular GSH ([4]; 100 μM, 72 hours): 10 % of control
Intracellular GSH ([4]; 10, 30 and 100 μM, 24 hours): 80 % of control
Ratio of Bax:Bcl2 expression [5]: decreased
Bcl2 mRNA expression vs control ([6]; 1, 10, 30 and 100 μM): substantially induced
IL-1α mRNA expression vs control [12]: substantially induced
IL-6 mRNA expression vs control [7]: substantially induced
IL-8 mRNA expression vs control ([13]; only 1 μM): mildly induced
TNF-α mRNA expression vs control ([8]; 24 hours): substantially induced
Safe inhalation dose recalculated per area [17]: 750 ng/cm^2
CYP1A1 mRNA expression vs control [9]: substantially induced
Dose identified as safe for inhalation [18]: up to 7.5 mg/m^2

lipopolysaccharide [LPS]
Effect on cell viability (MTT) [2, 21]: did not reduce cell viability
Intracellular GSH ([4]; 100 ng/mL, 24 hours): 65 % of control
Bcl2 mRNA expression vs control ([6]; only 30 and 100 ng/mL): induced
IL-1α mRNA expression vs control [12]: substantial, dose-independant induction
IL-6 mRNA expression vs control [7]: substantial, dose-independant induction
IL-8 mRNA expression vs control ([13]; 1, 10, 30, 100 dosed): mild induction
TNF-α mRNA expression vs control ([8]; 24 hours): substantial, dose-independant induction
CYP1A1 mRNA expression vs control [9, 19]: dose-dependant increase
